Results taken from US8280710B2, “Method for determining thermal stability of collagen or collagen-like peptide” (University of Medicine and Dentistry of New Jersey, priority 2005, dated 2012).
Non-standard residues stand in square brackets, D forms with d. Residues, ends and D or L forms follow the SMILES beside them. Hyp = O=C(O)[C@@H]1C[C@@H](O)CN1

Key:
[1] = for Tm^obs: peptide of Table 3, defined standard conditions
How it was run: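 Host-guest peptides in Gly-Xaa1-Hyp or Gly-Pro-Xaa2 contexts were melted at 1 mg/ml in PBS, pH 7.0. The heating rate averaged 0.1° C./minute, and residue propensity was derived from the Tm values.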

[2] = Predicted Tm of guest triplets/hexapeptides by additivity of Xaa1 and Xaa2 residues (Equation 1); settings: host-guest collagen-like peptides
Protocol: A complete table of the stability for all Gly-Xaa1-Xaa2 triplets was constructed using the experimental values for all frequent sequences and the predicted values for all others (Table 1; experimental values are in bold). Predicted values were calculated on the basis of additivity of residues in the Xaa1 and Xaa2 position (Persikov, et al. (2002) supra; Equation 1). Tm^GX^1^X^2=Tm^GX^1^O+Tm^GPX^2−Tm^GPO (1)
The predicted values gave good agreement (within ±3° C.) for the Gly-Ala-Ala and for 28 other guest triplets of the 41 Gly-Xaa1-Xaa2 triplets studied in host-guest collagen-like peptides. […] Observed Tm values of Gly-Xaa1-Arg sequences (Gly-Glu-Arg, Gly-Ala-Arg, Gly-Lys-Arg, Gly-Gln-Arg, and Gly-Asp-Arg) were 2.5° C. smaller on average than predicted, indicating the need for a correction factor in a Gly-Xaa1-Arg context versus a Gly-Pro-Arg context.
Interactions between adjacent Gly-Xaa1-Xaa2 tripeptides were included in the calculations. One study reported stabilities of a selection of host-guest peptides including residues in two adjacent tripeptide units, Gly-Xaa1-Xaa2-Gly-Xaa1′-Xaa2′, covering possible direct interchain or intrachain interactions between residues that are separated by ≦3 residues in sequence (Persikov, et al. (2005) supra) (FIG. 1).

[3] = Method for predicting global Tm of collagen peptides from amino acid sequence; settings: observed minus predicted, peptides of Table 3

Row | experimentally observed Tm of Gly-Xaa1-Xaa2 tripeptide unit in a triple helix ([1]; host-guest peptide, (Gly-Pro-Hyp)8 host, c=1 mg/ml in phosphate-buffered saline, pH 7.0, heating rate 0.1° C./minute) | deviation of observed Tm from predicted Tm of guest triplet [2] | Tm^obs [1] | ΔTm [3] | Compound
1 | 32.9 °C | ≤ 3 °C | – | – | Gly-Ala-Ala
2 | – | – | 18.0 °C | 0.9 °C | CC[C@H](C)[C@H](NC(=O)CNC(=O)[C@@H]1C[C@@H](O)CN1C(=O)[C@@H]1CCCN1C(=O)CNC(=O)[C@@H]1C[C@@H](O)CN1C(=O)[C@@H]1CCCN1C(=O)CNC(=O)[C@@H]1C[C@@H](O)CN1C(=O)[C@@H]1CCCN1)C(=O)N[C@H](C(=O)NCC(=O)N[C@@H](C)C(=O)N[C@@H](CCCNC(=N)N)C(=O)NCC(=O)N[C@@H](CC(C)C)C(=O)N[C@@H](C)C(=O)NCC(=O)N1CCC[C@H]1C(=O)N1C[C@H](O)C[C@H]1C(=O)NCC(=O)N1CCC[C@H]1C(=O)N1C[C@H](O)C[C@H]1C(=O)NCC(=O)N1CCC[C@H]1C(=O)N1C[C@H](O)C[C@H]1C(=O)NCC(=O)N1CCC[C@H]1C(=O)N1C[C@H](O)C[C@H]1C(=O)NCC(=O)O)[C@@H](C)O [T3-785, PO-(GPO)2-GIT-GAR-GLA-(GPO)4-G] (H-P[Hyp]GP[Hyp]GP[Hyp]GITGARGLAGP[Hyp]GP[Hyp]GP[Hyp]GP[Hyp]G-OH)
3 | – | – | 25.4 °C | 2.1 °C | CC[C@H](C)[C@H](NC(=O)CNC(=O)[C@@H]1C[C@@H](O)CN1C(=O)[C@H](CCCCN)NC(=O)CNC(=O)[C@@H]1C[C@@H](O)CN1C(=O)[C@H](CCC(=O)O)NC(=O)CNC(=O)[C@H](C)NC(=O)[C@H](CC(C)C)NC(=O)CNC(C)=O)C(=O)N1C[C@H](O)C[C@H]1C(=O)NCC(=O)N[C@@H](CC(C)C)C(=O)N1C[C@H](O)C[C@H]1C(=O)NCC(=O)N[C@@H](CCCNC(=N)N)C(=O)N[C@@H](C)C(=O)NCC(=O)N1CCC[C@H]1C(=O)N1C[C@H](O)C[C@H]1C(=O)NCC(=O)N1CCC[C@H]1C(=O)N1C[C@H](O)C[C@H]1C(=O)NCC(=O)N1CCC[C@H]1C(=O)N1C[C@H](O)C[C@H]1C(=O)NCC(=O)N1CCC[C@H]1C(=O)N1C[C@H](O)C[C@H]1C(=O)NCC(=O)N[C@H](C(N)=O)C(C)C [T7-2031, Ac-GLA-GEO-GKO-GIO-GLO-GRA-(GPO)4-GV-NH2] (Ac-GLAGE[Hyp]GK[Hyp]GI[Hyp]GL[Hyp]GRAGP[Hyp]GP[Hyp]GP[Hyp]GP[Hyp]GV-NH2)
